The results in this text go back to US20120115724A1, “METHOD OF CONTROLLING UNDESIRED VEGETATION” (SYNGENTA CROP PROTECTION LLC, priority 2009, published 2012).

Common to all, as to type: in vivo
The test system of test [1] is Alopecurus myosuroides (ALOMY). Kind of test: Pre-emergence biological efficacy (Example 13). The following applies: Alopecurus myosuroides, 312 h; pre-emergence, 1,000 g/ha, after 13 days; read-out: Percentage damage ALOMY. Summed up:
(§1)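 Compound formulated in acetone/water (50:50) containing 0.5% Tween 20, diluted into an aqueous spray and applied at 250 or 1000 g/ha a day after sowing. Evaluation at 13 days: 100 = total damage, 0 = no damage.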

Test [2] deals with Amaranthus retroflexus (AMARE). Kind of test: Pre-emergence biological efficacy (Example 13). The settings on record: Amaranthus retroflexus, 312 h; pre-emergence, 1,000 g/ha, after 13 days; read-out: Percentage damage AMARE. Put shortly:
as §1

The test system of test [3] is Echinochloa crus-galli (ECHCG). The test is described as follows: Pre-emergence biological efficacy (Example 13). The following applies: Echinochloa crus-galli, 312 h; pre-emergence, 1,000 g/ha, after 13 days; read-out: Percentage damage ECHCG. Put shortly: as §1
In test [4] the test system is Setaria faberi (SETFA). The test is described as follows: Pre-emergence biological efficacy (Example 13). The following applies: Setaria faberi, 312 h; pre-emergence, 1,000 g/ha, after 13 days; read-out: Percentage damage SETFA. Summed up: as §1
The subject of test [5] is Solanum nigrum (SOLNI). The test is described as follows: Pre-emergence biological efficacy (Example 13). The settings on record: Solanum nigrum, 312 h; pre-emergence, 1,000 g/ha, after 13 days; read-out: Percentage damage SOLNI. Put shortly: as §1
The subject of test [6] is Alopecurus myosuroides (ALOMY). The test is described as follows: Post-emergence biological efficacy (Example 14). The settings on record: Alopecurus myosuroides, 312 h; post-emergence, 1,000 g/ha, after 13 days; read-out: Percentage damage ALOMY. Put shortly: (§2)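 Herbicidal effect was assessed as percent plant damage 13 days after a foliar application of 250 or 1000 g/ha to 8-day-old glasshouse-grown plants, with the compound formulated in 50:50 acetone/water containing 0.5% Tween 20.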

The test system of test [7] is Amaranthus retroflexus (AMARE). Kind of test: Post-emergence biological efficacy (Example 14). The following applies: Amaranthus retroflexus, 312 h; post-emergence, 1,000 g/ha, after 13 days; read-out: Percentage damage AMARE. Summed up:
as §2

Test [8] has as its system Echinochloa crus-galli (ECHCG). Kind of test: Post-emergence biological efficacy (Example 14). The following applies: Echinochloa crus-galli, 312 h; post-emergence, 1,000 g/ha, after 13 days; read-out: Percentage damage ECHCG. Summed up: as §2
The test system of test [9] is Ipomea hederaceae (IPOHE). Kind of test: Post-emergence biological efficacy (Example 14). The following applies: Ipomoea hederacea, 312 h; post-emergence, 1,000 g/ha, after 13 days; read-out: Percentage damage IPOHE. Put shortly: as §2
Test [10] concerns Setaria faberi (SETFA). Kind of test: Post-emergence biological efficacy (Example 14). The following applies: Setaria faberi, 312 h; post-emergence, 1,000 g/ha, after 13 days; read-out: Percentage damage SETFA. Put shortly:
as §2

Test [11] relates to Solanum nigrum (SOLNI). The test is described as follows: Post-emergence biological efficacy (Example 14). The following applies: Solanum nigrum, 312 h; post-emergence, 1,000 g/ha, after 13 days; read-out: Percentage damage SOLNI. Summed up:
as §2

The subject of test [12] is ABUTH Abutilon theophrasti. Kind of test: Pre-emergence crop and weed test (Example 16). The following applies: after 20 days. Here is the method:
(§3) Seeds of crop and representative weed species were sown in standard soil in pots. After cultivation for 1 day under controlled conditions in a glasshouse (at 22/16° C., day/night; 16 hours light; 65% humidity), the plants were sprayed. The spray solution was prepared by dissolving the technical active ingredient in acetone containing 10.56 wt % Emulsogen EL, 42.22 wt % N-methylpyrrolidone and 2.22 wt % DPG-monoethyl ether to give a 5% stock solution. This was then diluted with water containing 0.2% (v/v) of the adjuvant X-77 to give the desired treatment concentration.
(§4) The test plants were then grown on under controlled conditions in a glasshouse (at 22/16° C., day/night; 16 hours light; 65% humidity) and watered twice daily. After 20 days the test was evaluated (100=total damage to plant; 0=no damage to plant).
(§5) Species as for Post-Emergence Test.

The test system of test [13] is AMARE Amaranthus retroflexus. The test is described as follows: Pre-emergence crop and weed test (Example 16). The following applies: after 20 days. Here is the method: as §3, §4, §5
The subject of test [14] is CHEAL Chenopodium album. The test is described as follows: Pre-emergence crop and weed test (Example 16). The following applies: after 20 days. How it is done: as §3, §4, §5
For test [15], the system named is EPHHL Euphorbia heterophylla. The test is described as follows: Pre-emergence crop and weed test (Example 16). The settings on record: after 20 days. Here is the method: as §3, §4, §5
Test [16] has as its system GALAP Galium aparine. The test is described as follows: Pre-emergence crop and weed test (Example 16). The settings on record: after 20 days. Here is the method:
as §3, §4, §5

Test [17] has as its system GLXMA Soybean. Kind of test: Pre-emergence crop and weed test (Example 16). The following applies: after 20 days. Here is the method:
as §3, §4, §5

In test [18] the test system is IPOHE Ipomoea hederacea. The test is described as follows: Pre-emergence crop and weed test (Example 16). The settings on record: after 20 days. Here is the method:
as §3, §4, §5

Test [19] concerns POLCO Polygonum convolvulus. The test is described as follows: Pre-emergence crop and weed test (Example 16). The settings on record: after 20 days. How it is done:
as §3, §4, §5

Test [20] has as its system SIDSP Sida spinosa. The test is described as follows: Pre-emergence crop and weed test (Example 16). The settings on record: after 20 days. How it is done: as §3, §4, §5
For test [21], the system named is SINAR Sinapis arvensis. Kind of test: Pre-emergence crop and weed test (Example 16). The following applies: after 20 days. How it is done: as §3, §4, §5
Test [22] relates to XANST Xanthium strumarium. The test is described as follows: Pre-emergence crop and weed test (Example 16). The settings on record: after 20 days. Here is the method: as §3, §4, §5

Structures are written as SMILES.

Consider `C/C=C\c1c(N)nc(-c2ccc(Cl)c(OC)c2F)nc1C(=O)OC` [Compound 4, (Z)-4-Amino-2-(4-chloro-2-fluoro-3-methoxy-phenyl)-6-methoxy-carbonyl-5-(prop-1-enyl)-pyrimidine], for which the pest or weed control at 1000 g/ha worked out at 80% in test [1]; 100% in test [2]; 90% in test [3]; 80% in test [4]; 100% in [5]; 70% in [6]. Further, the pest or weed control at 1000 g/ha in test [7] was 100%; in [8] it was 80%; in [9], 100%; in test [10], 90%; in test [11], 80%. Further, the “Percentage damage ABUTH” value in test [12] (125 g/ha) stood at 100%. Also, the “Percentage damage AMARE” value in test [13] (125 g/ha) came to 100%. The “Percentage damage CHEAL” value in test [14] (125 g/ha) was 40%. Also, in [15] (125 g/ha), the “Percentage damage EPHHL” value was found to be 100%. Besides, the “Percentage damage GALAP” value in test [16] (125 g/ha) was 80%. Besides, the “Percentage damage GLXMA” value in test [17] (125 g/ha) is listed as 10%. Besides, the “Percentage damage IPOHE” value in test [18] (125 g/ha) was determined as 50%. For the same compound, in test [19] (125 g/ha), the “Percentage damage POLCO” value came to 20%. In test [20] (125 g/ha), the “Percentage damage SIDSP” value is listed as 100%. For the same compound, the “Percentage damage SINAR” value in test [21] (125 g/ha) was 50%. In addition, the “Percentage damage XANST” value in [22] (125 g/ha) is reported as 30%.
As for `C/C=C\c1c(N)nc(-c2ccc(Cl)c(N(C)C)c2F)nc1C(=O)OC` [Compound 5, (Z)-4-Amino-2-(4-chloro-3-dimethylamino-2-fluorophenyl)-6-methoxy-carbonyl-5-(prop-1-enyl)-pyrimidine], the pest or weed control at 1000 g/ha in test [1] worked out at 30%; in test [2], 70%; in [3], 30%; in test [4], 30%; in test [5], 60%; in test [6] it was 60%. Moreover, the pest or weed control at 1000 g/ha in [7] worked out at 100%; in test [8] it was 70%; in test [9] it was 30%; in test [10] it was 70%; in test [11], 80%. Further, the “Percentage damage ABUTH” value in test [12] (125 g/ha) was 70%. In addition, the “Percentage damage AMARE” value in test [13] (125 g/ha) amounted to 90%. Moreover, in [14] (125 g/ha), the “Percentage damage CHEAL” value is reported as 100%. For the same compound, the “Percentage damage EPHHL” value in [15] (125 g/ha) came to 100%. For the same compound, in test [16] (125 g/ha), the “Percentage damage GALAP” value is listed as 100%. Further, in [17] (125 g/ha), the “Percentage damage GLXMA” value is 0%. Besides, the “Percentage damage IPOHE” value in test [18] (125 g/ha) is 50%. Besides, the “Percentage damage POLCO” value in test [19] (125 g/ha) came out at 0%. In test [20] (125 g/ha), the “Percentage damage SIDSP” value is recorded as 90%. The “Percentage damage SINAR” value in test [21] (125 g/ha) turned out to be 40%. In test [22] (125 g/ha), the “Percentage damage XANST” value was found to be 40%.
For the compound `C/C=C/c1c(N)nc(-c2ccc(Cl)c(OC)c2F)nc1C(=O)OC` [Compound 3, (E)-4-Amino-2-(4-chloro-2-fluoro-3-methoxy-phenyl)-6-methoxy-carbonyl-5-(prop-1-enyl)-pyrimidine], the pest or weed control at 1000 g/ha was found to be 90% in test [1]; 50% in test [2]; 90% in [3]; 80% in test [4]; 80% in test [5]; 90% in [6]. Also, the pest or weed control at 1000 g/ha in test [7] came to 100%; in test [8], 100%; in test [9], 90%; in [10], 100%; in [11], 100%. Further, the “Percentage damage ABUTH” value in test [12] (30 g/ha) was 30%. In addition, the “Percentage damage AMARE” value in test [13] (30 g/ha) is on record as 80%. The “Percentage damage CHEAL” value in test [14] (30 g/ha) is listed as 100%. In addition, the “Percentage damage EPHHL” value in test [15] (30 g/ha) turned out to be 100%. Besides, the “Percentage damage GALAP” value in test [16] (30 g/ha) is 100%. In test [17] (30 g/ha), the “Percentage damage GLXMA” value came out at 0%. Also, the “Percentage damage IPOHE” value in [18] (30 g/ha) was 0%. Also, the “Percentage damage POLCO” value in test [19] (30 g/ha) was determined as 50%. The “Percentage damage SIDSP” value in test [20] (30 g/ha) is on record as 90%. The “Percentage damage SINAR” value in test [21] (30 g/ha) is 40%. For the same compound, in test [22] (30 g/ha), the “Percentage damage XANST” value worked out at 10%.
